# Patent publication US11958869B2, “Ruthenium arene Schiff-base complexes and uses thereof” (CITY UNIVERSITY OF HONG KONG, priority 2021, dated 2024)
# Where two headings read alike, the source gives them in different places.
# Assays:
# Type in all cases: cell-based
# MDA-MB-231 mammospheres [1] = assay: Viability of MDA-MB-231 mammospheres, Alamar Blue assay (Table 1); conditions: for IC50: read-out: IC50 (μM), growth of MDA-MB-231 mammospheres
# MCF-7 = assay: cells; conditions: for IC50: read-out: IC50 (μM) MCF-7 72 h
# Method: (§1) Cells were seeded in 96-well plates and maintained for 14-16 hours, then were treated with dimethylsulfoxide (DMSO) or test compound at various concentrations (i.e., 0.312, 1.25, 5, 20 μM) for 72 hrs. The cells were then washed with phosphate buffer saline (PBS) twice, added a medium containing 3-(4,5-dimethylthiazol-2-yl)-2,5-diphenyltetrazolium bromide (MTT) at a final concentration of 0.5 mg/mL, and incubated for 4 hr at 37° C. in a humidified incubator containing 5% CO2 in air. Cells having functional succinate dehydrogenase of mitochondria would convert MTT to formazan. Then, the medium was replaced with 100 μL of DMSO for 30 min at room temperature, and the 96-well plate was read by an ELISA reader at 550 nm to get the absorbance density values. The IC50 values of death cell lines were calculated accordingly.
# (§2) The Ru^TEN complexes of Example 1 were evaluated for their anti-proliferative properties in two breast cancer cell lines, namely, MCF-7 and MDA-MB-231 cells via MTT assay. […] MCF-7 is a chemotherapy-responsive breast cancer cell line of luminal subtype with high expression of estrogen receptor (ER), whereas MDA-MB-231 is a triple negative breast cancer (TNBC) or basal-like breast cancer cell ine. TNBC is defined as highly invasive cancer that lacks expression of ER, progesterone receptor (PR) and Her-2; it has one of the worst outcomes among all subtypes of breast cancers. The aggressive nature of TNBC may be related to the presence of breast cancer stem cells within the tumor; therefore, MDA-MB-231 cells are often used as a model of mammary cancer stem cells.
# (§3) The cytotoxicity of Ru^TEN complexes of Example 1 was compared to that of cisplatin or oxaliplatin, which were known to induce their anticancer effects by the mode of action different from ER stress. Three CSC-selective organic compounds, salinomycin, etoposide and abamectin, were also used for comparison. Briefly, MCF-7 and MDA-MB-231 cells were respectively treated with increasing concentrations of compounds of interest for 24 or 72 hrs and then the cell viability was measured.
# MDA-MB-231 = assay: Anti-proliferative activity (MTT assay), MDA-MB-231
# Method: as §1, §2, §3
# MDA-MB-231 mammospheres [2] = assay: Cytotoxicity in MDA-MB-231 mammospheres (Table 2); conditions: read-out: IC50 (μM) MDA-MB-231 mammospheres 72 h
# MCF-7 mammospheres = assay: Mammosphere formation assay, MCF-7; conditions: for Number of MCF-7 mammospheres / Size (μm) of MCF-7 mammospheres: primary mammospheres grown 96 hr, incubated with compound 72 hrs, >50 μm analyzed; for decrease in number of MCF-7 mammospheres / decrease in size of MCF-7 mammospheres: versus control
# Method: (§4) Since the breast cancer stem cells formed a mass of colonies in the form of floating spheres without attaching to a surface of a plate, the size and number of the masses were observed by a mammosphere formation assay to determine a cancer-stem-cell-specific effect.
# (§5) Single-cell suspension was cultured at a density of 1,000 to 15,000 cells/well using a MammoCult™ Human Medium kit (Stemcell Technologies Inc Vancouver, CA), and the spherical cells were counted and observed under a microscope.
# (§6) The mammosphere assay is based on the concept that when cells proliferate in three-dimensional spheroid structures, only cancer cells with stem-like characteristics are able to evade anoikis.
# MDA-MB-231 mammospheres [3] = assay: Mammosphere formation assay, MDA-MB-231 primary; conditions: for Number of MDA-MB-231 mammospheres / Size (μm) of MDA-MB-231 mammospheres: primary mammospheres grown 96 hr, incubated with compound 72 hrs, >50 μm analyzed; for decrease in number of MDA-MB-231 mammospheres / decrease in size of MDA-MB-231 mammospheres: versus control
# Method: as §4, §5, §6
# [4] = tested on: MDA-MB-231 secondary mammospheres; assay: Secondary mammosphere formation (self-renewal), MDA-MB-231; conditions: for Number of MDA-MB-231 secondary mammospheres / Size (μm) of MDA-MB-231 secondary mammospheres: from drug-treated primary mammospheres, grown in drug-free conditions for 7 days; for propensity to form secondary mammospheres: single cells from drug-treated primary mammospheres, 7 days drug-free, FIG. 2
# Method: To this purpose, drug-treated primary MDA-MB-231 mammospheres were dissociated into single cell suspensions and incubated for 7 days in ultralow attachment drug-free conditions.
# [5] = tested on: ALDHbright subpopulation of MDA-MB-231 cells; assay: ALDEFLUOR assay (ALDH activity); conditions: versus control, FIG. 3
# Method: The cells were stained with […] bodipy-aminoacetaldehyde (BAAA), and then cultured at 37° C. for 45 minutes. An ALDH1 inhibitor, diethyl aminobenzaldehyde (DEAB), was used as the negative control. The stained cells were assayed using BD FACS Aria III. In this case, the positive fluorescent ALDH1-expressed cells (ALDH+) were detected in a green fluorescent channel (520 to 540 nm).
# While CD44+/CD24−/low phenotype has often been associated with breast CSC/progenitor cell features, yet there is no correlation between the presence of CD44+/CD24−/low cells and clinical outcome and formation of distant metastases. It is the presence of aldehyde dehydrogenase (ALDH) bright cells which separates highly tumorigenic CD44+/CD24−/low/ALDHbright population from non-tumorigenic cells. Unlike CD44+/CD24−/low, ALDH is a predictor of metastasis and is associated with a poor clinical outcome. The main role of ALDH enzymes is the detoxification of aldehydes generated in various metabolic processes into carboxylic acids. However, several ALDH isoforms are involved in retinoic acid signaling and this particular function was linked to the “stemness” of CSCs. The functional activity of ALDHs can be accurately determined by ascertaining the cellular conversion of […] (BAAA) into a fluorescent molecule BODIPY-aminoacetate (BAA). ATP-binding cassette (ABC)-transporter inhibitors in the assay buffer prevent the efflux of BAA from the cells, resulting in the accumulation of BAA in cytoplasm.
# MDA-MB-231 mammospheres [6] = assay: Invasion / dispersion of spheroids into 3D collagen; conditions: cells incubated with compound 72 hr, FIG. 4
# Description: CSCs are associated with highly invasive phenotype and it is believed that this subset of cancer cells gives rise to metastases. In order to monitor the dissemination of MCF-7 and MDA-MB-231 breast cancer spheroids, the spheroids were embedded into three-dimensional (3D) collagen scaffold using Aim Biotech 3D cell culture chips. Collagen with spheroids was introduced into the central region of the microfluidic system where it polymerized via thermal cross-linking. Cell culture media was introduced into media channels forcing spheroids to move through collagen towards the media.
# Thus, whether Ru^TEN complexes and salinomycin affected the invasive properties of MDA-MB-231 spheroids was then investigated. To this purpose, MDA-MB-231 monolayer cells were incubated with compounds of interest (e.g., Ru^TEN complexes of Examplel or salinomycin) for 72 hr, then the delamination was allowed to proceed for over 28 hr. Results are depicted in FIG. 4.
# [7] = 24 h, MTT, read-out: IC50 (μM) MDA-MB-231 24 h
# [8] = 72 h, MTT, read-out: IC50 (μM) MDA-MB-231 72 h
Compound,viability of MDA-MB-231 mammospheres (MDA-MB-231 mammospheres [1]),"IC50 (MCF-7; 72 h, MTT) [µM]",IC50 (MDA-MB-231; [7]) [µM],IC50 (MDA-MB-231; [8]) [µM],IC50 (MDA-MB-231 mammospheres [2]; 72 h) [µM],"inhibition of mammosphere growth, MCF-7 (MCF-7 mammospheres)",Number of MCF-7 mammospheres (MCF-7 mammospheres),Size (μm) of MCF-7 mammospheres (MCF-7 mammospheres) [μm],"inhibition of mammosphere growth, MDA-MB-231 (MDA-MB-231 mammospheres [3])",Number of MDA-MB-231 mammospheres (MDA-MB-231 mammospheres [3]),Size (μm) of MDA-MB-231 mammospheres (MDA-MB-231 mammospheres [3]) [μm],Number of MDA-MB-231 secondary mammospheres [4],Size (μm) of MDA-MB-231 secondary mammospheres [4] [μm],reduction of ALDHbright sub-population [5],decrease in number of MCF-7 mammospheres (MCF-7 mammospheres),decrease in size of MCF-7 mammospheres (MCF-7 mammospheres),decrease in number of MDA-MB-231 mammospheres (MDA-MB-231 mammospheres [3]),decrease in size of MDA-MB-231 mammospheres (MDA-MB-231 mammospheres [3]),IC50 (MDA-MB-231 mammospheres [1]) [µM],propensity to form secondary mammospheres [4],other results
"N.N.[Cl][Pt][Cl] [Cisplatin, cisplatin]",did not affect the viability,22 ± 7,268 ± 78,27 ± 8,> 40,did not show any potency in inhibiting mammosphere growth,273 ± 108,106 ± 14,did not show any potency in inhibiting mammosphere growth,136 ± 44,95 ± 25,67 ± 20,103 ± 30,did not affect ALDHbright cells,–,–,–,–,–,–,"antiproliferative activity, MCF-7 (MCF-7; MTT): only moderately active; antiproliferative activity, MDA-MB-231 (MDA-MB-231; MTT): only moderately active"
"COc1cc([C@@H]2c3cc4c(cc3[C@@H](O[C@@H]3O[C@@H]5CO[C@@H](C)O[C@H]5[C@H](O)[C@H]3O)[C@H]3COC(=O)[C@H]23)OCO4)cc(OC)c1O [Etoposide, etoposide]",–,–,–,–,–,–,237 ± 11,135 ± 6,–,107 ± 37,123 ± 20,73 ± 22,63 ± 4,52%,10-15%,did not affect the size,10-15%,did not affect the size,–,–,"IC50 (MCF-7; Homo sapiens, MCF7, 72 h): 0.79 ± 0.21 µM; IC50 (MDA-MB-231; Homo sapiens, MDA-MB-231, 24 h, read-out: IC50 (μM) MDA-MB-231 24 h): > 1000 µM; IC50 (MDA-MB-231; Homo sapiens, MDA-MB-231, 72 h, read-out: IC50 (μM) MDA-MB-231 72 h): 6.4 ± 1.2 µM; IC50 (MDA-MB-231 mammospheres [2]; Homo sapiens, MDA-MB-231, 72 h): > 40 µM"
"O=C1[O][Pt]2([NH][C@@H]3CCCC[C@H]3[NH]2)[O]C1=O [Oxaliplatin, oxaliplatin]",did not affect the viability,1.1 ± 0.2,348 ± 78,4.6 ± 1,> 40,did not show any potency in inhibiting mammosphere growth,274 ± 93,107 ± 17,did not show any potency in inhibiting mammosphere growth,144 ± 50,99 ± 27,122 ± 10,86 ± 14,–,–,–,–,–,–,–,–
"COc1ccc([N+]2=Cc3ccc4ccccc4[n+]3[Ru-]2[Cl])cc1.Cc1c(C)c(C)c(C)c(C)c1C.[Cl-] [Ru^TEN2, [(η6-hexamethylbenzene)RuCl(4-methoxv-N-(2-quinolinyl-methylene)-aniline)]Cl]",–,4.1 ± 0.9,10 ± 1,2.2 ± 0.3,> 40,–,255 ± 175,114 ± 24,did not inhibit mammosphere growth,141 ± 41,98 ± 18,186 ± 45,85 ± 15,–,–,–,–,–,> 20,only slight changes in size and number of mammospheres,dispersion of cells into collagen after 4 hr (MDA-MB-231 mammospheres [6]): did not exhibit significant dispersion; dispersion of cells into collagen after 28 hr / entire incubation period (MDA-MB-231 mammospheres [6]): only slight dispersion
"Cc1c(C)c(C)c(C)c(C)c1C.Clc1cccc([N+]2=Cc3ccc4ccccc4[n+]3[Ru-]2[Cl])c1.[Cl-] [Ru^TEN4, [(η6-Hexamethylbenzene)RuCl(3-chloro-N-(2-quinolinylmethylene)aniline)]Cl]",–,2.5 ± 0.7,9.2 ± 1.3,1.4 ± 0.3,7.2 ± 1.8,–,236 ± 88,105 ± 18,–,118 ± 17,95 ± 37,91 ± 33,70 ± 6,–,10%,17%,17%,10%,11,drastically reduced propensity to form secondary mammospheres,dispersion of cells into collagen after 4 hr (MDA-MB-231 mammospheres [6]): did not exhibit significant dispersion; dispersion of cells into collagen after 28 hr / entire incubation period (MDA-MB-231 mammospheres [6]): only slight dispersion
abamectin,–,7 ± 2.2,18 ± 6,6.4 ± 2.3,4 ± 0.5,–,147 ± 33,77 ± 13,–,4 ± 1,76 ± 8,–,–,–,–,–,–,–,–,–,–
